This passage reports IC50 results from patent US10577363B2, “Substituted piperidine compounds” (EPIZYME, INC., priority 2014, dated 2020).

pIC50: −log10 of the molar value.

T1 sequence (Q9H7B4 whole entry): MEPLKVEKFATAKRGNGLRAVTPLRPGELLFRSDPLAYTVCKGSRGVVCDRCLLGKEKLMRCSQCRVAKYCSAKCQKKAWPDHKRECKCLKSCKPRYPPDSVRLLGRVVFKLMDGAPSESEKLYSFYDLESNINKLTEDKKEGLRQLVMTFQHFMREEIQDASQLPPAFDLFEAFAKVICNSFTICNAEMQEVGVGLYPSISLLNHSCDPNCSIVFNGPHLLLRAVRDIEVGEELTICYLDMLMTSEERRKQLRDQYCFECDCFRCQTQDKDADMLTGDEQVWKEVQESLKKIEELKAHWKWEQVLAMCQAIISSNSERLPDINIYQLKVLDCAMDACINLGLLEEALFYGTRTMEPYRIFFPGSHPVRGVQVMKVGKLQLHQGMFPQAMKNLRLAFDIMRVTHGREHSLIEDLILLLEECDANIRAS

One experiment addresses T1, SMYD3 (Homo sapiens (Human), UniProt Q9H7B4). Description: SMYD3 cell assay (Trimethyl-MEKK2 In-Cell Western in 293T/17 cells). Conditions: 293T/17 cells; read-out: SMYD3 Cell IC50 (μM)*. In kind it is cell-based. An excerpt:
Trimethyl-MEKK2-in-Cell Western Assay
MEM/Glutamax medium, Optimem Reduced Serum medium, penicillin-streptomycin, 0.05% trypsin and 1×D-PBS were purchased from Life Technologies, Grand Island, N.Y., USA. PBS-10× was purchased from Ambion, Life Technologies, Grand Island, N.Y., USA. PBS with Tween 20 (PBST (10×)) was purchased from KPL, Gaithersburg, Md., USA. Tet System FBS-approved FBS US Source was purchased from Clontech, Mountain View, Calif., USA. Odyssey blocking buffer, 800CW goat anti-rabbit IgG (H+L) antibody, 680CW Goat anti-mouse IgG (H+L) and Licor Odyssey infrared scanner were purchased from Licor Biosciences, Lincoln, Nebr., USA. Tri-methyl-Lysine [A260]-MEKK2 antibody, MEKK2 and SMYD3 plasmids were made at Epizyme. Anti-flag monoclonal mouse antibody was purchased from Sigma, St. Louis, Mo., USA. Methanol was purchased from VWR, Franklin, Mass., USA. 10% Tween 20 was purchased from KPL, Inc., Gaithersburg, Md., USA. Fugene was purchased from Promega, Madison, Wis., USA. The Biotek ELx405 was purchased from BioTek, Winooski, Vt., USA. The multidrop combi was purchased from Thermo Scientific, Waltham, Mass., USA.
Cell Treatment, in Cell Western (ICW) for Detection of Trimethyl-Lysine-MEKK2 and MEKK2.
Plasmids were prepared for delivery to cells by first mixing 1350 μL Opti-MEM with Fugene (81 μL) in a sterile Eppendorf and incubated for five minutes at room temperature (RT). […] Entire volume of Opti-MEM/Fugene mixture was then added to a microfuge tube containing DNA plasmid, mixed and then incubated×15 minutes at RT. […] Medium was then removed, and cells were washed once with PBS in the flask. Trypsin 0.05% (3 mL) was added and cells incubated for three minutes. Room temperature MEM+10% Tet system FBS was added and cells were mixed gently, and counted using the Vi-cell. Cells were seeded at 100,000 cells/mL in 50 μL MEM/10% Tet FBS/Pen/Strep to a 384 well black/clear poly-D-lysine coated plate containing test agent diluted in DMSO. The final top concentration of test compound was 40 μM. […] Plates were incubated×30 minutes at RT in low-airflow area, followed by incubation at 37° C. under 5% CO2 for 24 hours. Medium was aspirated from all wells of assay plates prior to fixation and permeabilization with ice cold (−20° C.) methanol (90 μL/well) for ten minutes. Plates were rinsed with PBS three times on BioTek ELx405. PBS was removed with a final aspiration, and Odyssey blocking buffer (50 μL/well) was added to each well and incubated for one hour at RT. Primary antibody solution was prepared (anti-trimethyl-MEKK2 at 1:600 dilution plus mouse anti-flag antibody at 1:10,000 dilution in diluent (Odyssey Blocking buffer+0.1% Tween 20)) and 20 μL per well was dispensed using the Multidrop Combi. Assay plates were then sealed with foil, and incubated overnight at 4° C. Plates were washed five times with PBS-Tween (1×) on Biotek ELx405 and blotted on paper towel to remove excess reagent.
First, the ratio for each well was determined by:
Each plate included fourteen control wells of DMSO only treatment (Minimum Inhibition) as well as fourteen control wells for maximum inhibition (Background). The average of the ratio values for each control type was calculated and used to determine the percent inhibition for each test well in the plate. Reference compound was serially diluted two-fold in DMSO for a total of nine test concentrations, beginning at 40 μM.
Percent inhibition was calculated (below).
Non-linear regression curves were generated to calculate the IC50 and dose-response relationship using triplicate wells per concentration of compound.
Broadly, the IC50 is the concentration at which inhibition is half-maximal. As for `C[C@@H]1C[C@H](NC(=O)c2cc(C3CC3)on2)CCN1C(=O)c1ccc(C2(N)CCC2)cc1` [compound 479, N-((2R,4R)-1-(4-(1-aminocyclobutyl)benzoyl)-2-methylpiperidin-4-yl)-5-cyclopropylisoxazole-3-carboxamide], the IC50 is 2.03 µM.

The same experiment, now with this note: Table 1A; IC50 values are an average of n = 1 to n = 50; read-out: SMYD3 Cell IC50.
The pIC50 is the IC50 on a negative log10 scale, so that one unit is a factor of ten. For `O=C(N[C@@H]1C[C@H]2CC[C@@H](C1)N2S(=O)(=O)c1ccc2[nH]c(=O)[nH]c2c1)c1cc(C2CC2)on1` [compound 494, 5-cyclopropyl-N-((1R,3s,5S)-8-((2-oxo-2,3-dihydro-1H-benzo[d]imidazol-5-yl)sulfonyl)-8-azabicyclo[3.2.1]octan-3-yl)isoxazole-3-carboxamide], the pIC50 is 5.29.

For another experiment, the target named is T1, SMYD3. The experiment can be described thus: SMYD3 biochemical assay (SPA, 3H-SAM methylation of MEKK2 protein substrate). The settings on record: Table 1A; IC50 values are an average of n = 1 to n = 50; read-out: SMYD3 Biochem IC50. In short, it runs like this: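 Tritium incorporation into GST-MEKK2 is counted by scintillation proximity after citric acid bead capture. Native human SMYD3 is preincubated with test compound for 30 min at room temperature at pH 8.0 (Tris-Cl, TCEP, BSG, Tween 20) before 3H-SAM and substrate are added; cold SAM at 100 uM final stops turnover.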
For the compound `CCN(CC)S(=O)(=O)N1CC[C@H](NC(=O)c2cc(C3CC3)on2)C[C@@H]1C` [compound 518, 5-cyclopropyl-N-((2S,4S)-1-(N,N-diethylsulfamoyl)-2-methylpiperidin-4-yl)isoxazole-3-carboxamide], the pIC50 was 5.43. Regarding `C[C@H]1C[C@@H](NC(=O)c2cc(C3CC3)on2)CCN1S(=O)(=O)c1cccc(C(F)(F)F)n1` [compound 519, 5-cyclopropyl-N-((2S,4S)-2-methyl-1-((6-(trifluoromethyl)pyridin-2-yl)sulfonyl)piperidin-4-yl)isoxazole-3-carboxamide], the pIC50 was 6.69. With `C[C@H]1C[C@@H](NC(=O)c2cc(C3CC3)on2)CCN1S(=O)(=O)c1cccc(NCCCN)n1` [compound 520, N-((2S,4S)-1-((6-((3-aminopropyl)amino)pyridin-2-yl)sulfonyl)-2-methylpiperidin-4-yl)-5-cyclopropylisoxazole-3-carboxamide], the pIC50 was 7.30. Regarding `C[C@H]1C[C@@H](NC(=O)c2cc(C3CC3)on2)CCN1S(=O)(=O)c1cccc(N(C)CCN2CCOCC2)n1` [compound 521, 5-cyclopropyl-N-((2S,4S)-2-methyl-1-((6-(methyl(2-morpholinoethyl)amino)pyridin-2-yl)sulfonyl)piperidin-4-yl)isoxazole-3-carboxamide], the negative-log IC50 (pIC50) is 5.35. On the same count and under the same terms, as for `C[C@H]1C[C@@H](NC(=O)c2cc(C3CC3)on2)CCN1S(=O)(=O)c1ccc(N)nc1` [compound 522, N-((2S,4S)-1-((6-aminopyridin-3-yl)sulfonyl)-2-methylpiperidin-4-yl)-5-cyclopropylisoxazole-3-carboxamide], the figure is 6.39; as for `C[C@H]1C[C@@H](NC(=O)c2cc(C3CC3)on2)CCN1S(=O)(=O)c1cccnc1N` [compound 523, N-((2S,4S)-1-((2-aminopyridin-3-yl)sulfonyl)-2-methylpiperidin-4-yl)-5-cyclopropylisoxazole-3-carboxamide], 5.97.

Still in this experiment, the particulars now being: Table 2A; read-out: SMYD3 Biochem IC50.
For `CNCCCCS(=O)(=O)N1CC[C@H](NC(=O)c2cc(C3CC3)on2)C[C@@H]1C` [compound 561, 5-cyclopropyl-N-((2S,4S)-2-methyl-1-((4-(methylamino)butyl)sulfonyl)piperidin-4-yl)isoxazole-3-carboxamide], the negative-log IC50 (pIC50) was 8.29.

Staying with this experiment, now noted: average of n = 1 to n = 50; read-out: SMYD3 Biochem IC50.
For the compound `COCCN(C)CCCS(=O)(=O)N1[C@@H]2CC[C@H]1C[C@@H](NC(=O)c1cc(C3CC3)on1)C2` [compound 665, 5-cyclopropyl-N-((1R,3r,5S)-8-((3-((2-methoxyethyl)(methyl)amino)propyl)sulfonyl)-8-azabicyclo[3.2.1]octan-3-yl)isoxazole-3-carboxamide], the negative logarithm of the IC50 (pIC50) was 7.06. The same measure, in the same setting: as for `C[C@@H]1C[C@@H](NC(=O)c2cc(C3CC3)on2)CCN1S(=O)(=O)C(CCN)c1ccccc1` (stereo partly drawn) [compound 704, N-((2R,4S)-1-((3-amino-1-phenylpropyl)sulfonyl)-2-methylpiperidin-4-yl)-5-cyclopropylisoxazole-3-carboxamide], the figure is 6.66; as for `Nc1cccc(S(=O)(=O)N2[C@@H]3CCC[C@H]2C[C@H](NC(=O)c2cc(C4CC4)on2)C3)n1` [compound 740, N-((1R,3s,5S)-9-((6-aminopyridin-2-yl)sulfonyl)-9-azabicyclo[3.3.1]nonan-3-yl)-5-cyclopropylisoxazole-3-carboxamide], 6.30; as for `Cc1ccnc(S(=O)(=O)N2CC[C@H](NC(=O)c3cc(C4CC4)on3)C[C@@H]2C)c1` [compound 741, 5-cyclopropyl-N-((2S,4S)-2-methyl-1-((4-methylpyridin-2-yl)sulfonyl)piperidin-4-yl)isoxazole-3-carboxamide], 6.29. As for `CC1(C(=O)N2CCC(NC(=O)c3cc(C4CC4)on3)CC2)CCNCC1` [compound 760, 5-cyclopropyl-N-(1-(4-methylpiperidine-4-carbonyl)piperidin-4-yl)isoxazole-3-carboxamide], the negative logarithm of the IC50 (pIC50) was 6.13. As to `Cc1ccc(S(=O)(=O)N2C3CCC[C@@H]2C[C@@H](NC(=O)c2cc(C4CC4)on2)C3)nc1` [compound 763, 5-cyclopropyl-N-((1R,3S)-9-((5-methylpyridin-2-yl)sulfonyl)-9-azabicyclo[3.3.1]nonan-3-yl)isoxazole-3-carboxamide], the negative-log IC50 (pIC50) is 6.11.

The same experiment, now with this note: read-out: SMYD3 Biochem IC50.
For `NCCCNc1ccc(S(=O)(=O)N2C3CCCC2CC(NC(=O)c2cc(C4CC4)on2)C3)cn1` (stereo not drawn) [compound 516, N-(9-((6-((3-aminopropyl)amino)pyridin-3-yl)sulfonyl)-9-azabicyclo[3.3.1]nonan-3-yl)-5-cyclopropylisoxazole-3-carboxamide], the pIC50 was 7.13. Regarding `CN(CCCN)c1ccc(S(=O)(=O)N2C3CCCC2CC(NC(=O)c2cc(C4CC4)on2)C3)cn1` (stereo not drawn) [compound 517, N-(9-((6-((3-aminopropyl)(methyl)amino)pyridin-3-yl)sulfonyl)-9-azabicyclo[3.3.1]nonan-3-yl)-5-cyclopropylisoxazole-3-carboxamide], the negative logarithm of the IC50 (pIC50) was 7.10. Regarding `CNc1ncccc1S(=O)(=O)N1C2CCCC1CC(NC(=O)c1cc(C3CC3)on1)C2` (stereo not drawn) [compound 524, 5-cyclopropyl-N-(9-((2-(methylamino)pyridin-3-yl)sulfonyl)-9-azabicyclo[3.3.1]nonan-3-yl)isoxazole-3-carboxamide], the negative logarithm of the IC50 (pIC50) was 5.73.

The experiment is the same for the next values; noted with them: read-out: SMYD3 Biochem IC50*.
Consider `C[C@H]1C[C@@H](NC(=O)c2cc(C3CC3)on2)CCN1S(=O)(=O)C[C@H]1CCCNC1` [compound 854, 5-cyclopropyl-N-((2S,4S)-2-methyl-1-((((S)-piperidin-3-yl)methyl)sulfonyl)piperidin-4-yl)isoxazole-3-carboxamide], for which the pIC50 was 8.16.

For the compound `C[C@H]1C[C@@H](NC(=O)c2cc(C3CC3)on2)CCN1S(=O)(=O)C[C@@H]1CCCNC1` [compound 875, 5-cyclopropyl-N-((2S,4S)-2-methyl-1-((((R)-piperidin-3-yl)methyl)sulfonyl)piperidin-4-yl)isoxazole-3-carboxamide], the negative-log IC50 (pIC50) is 8.00.

Consider `O=C(N[C@H]1C[C@H]2CC[C@@H](C1)N2S(=O)(=O)N1CCNCC1Cc1ccccc1)c1cc(C2CC2)on1` (stereo partly drawn) [compound 940, N-((1R,3r,5S)-8-((2-benzylpiperazin-1-yl)sulfonyl)-8-azabicyclo[3.2.1]octan-3-yl)-5-cyclopropylisoxazole-3-carboxamide], for which the negative logarithm of the IC50 (pIC50) is 7.32.
